Data as given in patent publication US7825226B2, “Glycoprotein synthesis” (The Scripps Research Institute, priority 2002, dated 2010).

How the values were obtained:
[1] = test system: E. coli DH10B cells; assay: growth rate of cells grown with the unnatural amino acid; details: 1 mM; cells transformed with mutRNACUA^Tyr, LW1RS and Z domain gene (Lys7TAG)
Protocol: E. coli DH10B cells cotransformed with pLEIZ and pBK-LW1RS were grown in minimal media containing 1% glycerol and 0.3 mM leucine (GMML media) with 25 μg/mL kanamycin, 34 μg/mL of chloramphenicol, and 1.0 mM p-acetyl-(±)-phenylalanine.
Cells transformed with the mutRNACUA^Tyr, LW1RS and Z domain gene (Lys7TAG) were grown in the presence of 1 mM p-acetyl-(±)-phenylalanine.

[2] = test system: Bandeiraea simplicifolia II (BSII); assay: ELISA-like assay of binding of a GlcNAc-specific lectin; details: 200 ng immobilized protein, absorbance at 405 nm
Protocol: Several additional experiments were performed to further characterize the mutant myoglobin. First, an ELISA-like assay was used to analyze the binding of a GlcNAc-specific lectin, Bandeiraea simplicifolia II (BSII) (see, e.g., S. Ebisu, et al., (1978), Carbohydr. Res. 61:129), to wild-type myoglobin and glyco-myoglobin. See FIG. 6, Panel A. FIG. 6, Panel A illustrates binding of a GlcNAc-specific lectin, Banderiraea simplicifolia II (BSII), to wild-type myoglobin and glycomyoglobin. A405 values are shown for wild-type myoglobin, glycomyoglobin, and negative control (no lectin added). Gly4→Compound A mutant myoglobin (200 ng) and wild type myoglobin (200 ng) were immobilized in microtiter plate wells and subsequently incubated with biotinylated BSII and streptavidin-alkaline phosphatase conjugate. Wells were incubated with p-nitrophenyl phosphate and monitored by measuring the absorbance at 405 nm. The two forms of myoglobin were immobilized in microtiter plate wells and then incubated with biotinylated BSII, streptavidin-alkaline phosphatase conjugate, and p-nitrophenyl phosphate, respectively.
(§1) Expression and characterization of mutant myoglobin. […] Proteins were analyzed by 12% SDS-PAGE and silver-stained. […]

[3] = biological target: T1, bovine milk galactosyltransferase (Bos taurus, UniProt P08037); assay: on-blot galactosyltransferase labeling with UDP-[H^3]galactose; type: biochemical; details: 1 μg protein on PVD membrane, 24 hours at room temperature
T1 construct: from tissue; host or cells: bovine milk
T1 sequence (P08037 79-402 limits assumed): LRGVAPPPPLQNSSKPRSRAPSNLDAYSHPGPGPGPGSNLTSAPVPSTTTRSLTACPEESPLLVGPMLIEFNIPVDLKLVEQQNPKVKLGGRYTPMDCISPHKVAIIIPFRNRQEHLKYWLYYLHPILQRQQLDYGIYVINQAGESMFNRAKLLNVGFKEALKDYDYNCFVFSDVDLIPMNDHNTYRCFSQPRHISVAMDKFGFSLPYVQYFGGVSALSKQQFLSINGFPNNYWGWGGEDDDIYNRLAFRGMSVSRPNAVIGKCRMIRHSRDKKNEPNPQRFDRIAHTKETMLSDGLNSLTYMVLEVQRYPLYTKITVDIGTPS
From the text: We also investigated whether the O-GlcNAc-serine residue in myoglobin could be selectively modified with a galactosyltransferase. Beta-1,4-galactosyltransferase is known to transfer galactose (Gal) from the sugar nucleotide UDP-Gal to the 4 position of an N-acetylglucosamine (GlcNAc) to form Galβ1,4GlcNAc. To determine if the O-glycosylated myoglobin can be modified with UDP-Gal, both wild-type and O-glycosylated myoglobin were resolved by SDS-PAGE and transferred to a PVD membrane. The membrane was then incubated with bovine milk galactosyltransferase and radioactive UDP-[H^3]-galactose at room temperature for 24 hours. See, e.g., K. Kamemura, et al., (2002), J. Biol. Chem. 277:19229. Incorporation of [H^3]-Gal was monitored by exposing the membrane to X-ray film. […] See FIG. 6, Panel B. FIG. 6, Panel B illustrates on-blot galactosyltransferase labeling glycomyoglobin with UDP-[H^3]galactose. Wild type myoglobin (1 μg) and Gly4→Compound A mutant myoglobin (1 μg) were resolved by 12% SDS-PAGE and transferred to a PVD membrane. The membrane was then treated with bovine milk galactosyltransferase (1 U), UDP-[H^3]galactose (0.5 μCi) and calf intestinal alkaline phosphatase (1 U) for 24 hours at room temperature. […]
as §1

incorporation of [H^3]-Gal (X-ray film) [3] | Compound | effect on growth rate of cells [1] | lectin binding signal (A405) [2]
 | CC(=O)c1ccc(CC(N)C(=O)O)cc1 (racemic) [p-acetyl-(±)-phenylalanine] | did not affect the growth rate of cells | 
no detectable signal | wild-type myoglobin: wild-type myoglobin used for comparison |  | signal equivalent to negative control wells
